pIC50: −log10 of the molar value. Like-named read-outs stand apart in the source and are kept apart here.
Key:
[1] = target: T1, PI3K delta (PI3 Kd) (Homo sapiens, UniProt O00329); test: kinobeads assay, PI3K delta; type: binding
T1 construct: endogenous in cells; host or cells: Jurkat, clone E6-1 (ATCC TIB-152) cell lysate
Procedure, shortened: (§1)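 Competitive binding in Jurkat cell lysate (5 mg/mL protein) against beads carrying an immobilized phenylmorpholin-chromen ligand, in DP buffer pH 7.4 with NP40, DTT and NaF. Bead-bound kinases were eluted and quantified by antibody dot blot with infrared detection, and IC50 was taken from dose-response curves of a 1:3 dilution series.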

[2] = target: T2, DNA-dependent protein kinase (DNA-PK) (Homo sapiens, UniProt P78527); test: kinobeads assay, DNA-PK; type: binding
T2 construct: endogenous in cells; host or cells: Jurkat, clone E6-1 (ATCC TIB-152) cell lysate
Procedure, shortened: as §1

[3] = kinobeads assay, Table 4, read-out: Inhibition values (IC50) PI3Kd
[4] = kinobeads assay, Table 6, read-out: Inhibition values (IC50) PI3Kd
[5] = kinobeads assay, Table 4, read-out: Inhibition values (IC50) DNA-PK
[6] = kinobeads assay, Table 6, read-out: Inhibition values (IC50) DNAPK
[7] = Further Kinobeads Data, read-out: PI3Kd
[8] = Further Kinobeads Data, read-out: DNAPK

T1 sequence (O00329 whole entry): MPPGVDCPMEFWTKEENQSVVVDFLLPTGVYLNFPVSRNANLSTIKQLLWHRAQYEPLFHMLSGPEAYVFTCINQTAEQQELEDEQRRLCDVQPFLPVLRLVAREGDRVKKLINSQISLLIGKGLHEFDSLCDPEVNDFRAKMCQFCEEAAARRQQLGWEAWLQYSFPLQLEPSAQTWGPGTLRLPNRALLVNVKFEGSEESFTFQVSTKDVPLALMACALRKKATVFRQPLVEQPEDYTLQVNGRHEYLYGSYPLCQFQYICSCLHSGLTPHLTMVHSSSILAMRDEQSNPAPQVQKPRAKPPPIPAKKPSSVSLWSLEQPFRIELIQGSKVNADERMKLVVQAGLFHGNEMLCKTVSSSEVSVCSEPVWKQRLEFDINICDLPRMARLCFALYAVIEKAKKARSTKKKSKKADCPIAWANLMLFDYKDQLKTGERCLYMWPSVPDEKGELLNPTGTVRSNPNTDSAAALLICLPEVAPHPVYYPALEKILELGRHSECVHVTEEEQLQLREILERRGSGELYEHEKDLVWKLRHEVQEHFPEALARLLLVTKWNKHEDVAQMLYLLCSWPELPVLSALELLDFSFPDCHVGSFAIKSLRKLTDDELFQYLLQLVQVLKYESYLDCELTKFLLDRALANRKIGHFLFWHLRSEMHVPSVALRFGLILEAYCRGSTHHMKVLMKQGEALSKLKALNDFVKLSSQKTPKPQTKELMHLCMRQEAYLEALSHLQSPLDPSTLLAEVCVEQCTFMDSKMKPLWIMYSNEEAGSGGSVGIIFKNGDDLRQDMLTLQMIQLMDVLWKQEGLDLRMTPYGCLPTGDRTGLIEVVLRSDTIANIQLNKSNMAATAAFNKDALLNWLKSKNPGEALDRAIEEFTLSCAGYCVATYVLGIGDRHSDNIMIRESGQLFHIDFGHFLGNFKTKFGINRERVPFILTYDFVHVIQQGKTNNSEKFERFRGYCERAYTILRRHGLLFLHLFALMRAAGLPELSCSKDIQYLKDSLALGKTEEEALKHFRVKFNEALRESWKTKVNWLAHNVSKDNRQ
T1 sequence (P27986 whole entry partner): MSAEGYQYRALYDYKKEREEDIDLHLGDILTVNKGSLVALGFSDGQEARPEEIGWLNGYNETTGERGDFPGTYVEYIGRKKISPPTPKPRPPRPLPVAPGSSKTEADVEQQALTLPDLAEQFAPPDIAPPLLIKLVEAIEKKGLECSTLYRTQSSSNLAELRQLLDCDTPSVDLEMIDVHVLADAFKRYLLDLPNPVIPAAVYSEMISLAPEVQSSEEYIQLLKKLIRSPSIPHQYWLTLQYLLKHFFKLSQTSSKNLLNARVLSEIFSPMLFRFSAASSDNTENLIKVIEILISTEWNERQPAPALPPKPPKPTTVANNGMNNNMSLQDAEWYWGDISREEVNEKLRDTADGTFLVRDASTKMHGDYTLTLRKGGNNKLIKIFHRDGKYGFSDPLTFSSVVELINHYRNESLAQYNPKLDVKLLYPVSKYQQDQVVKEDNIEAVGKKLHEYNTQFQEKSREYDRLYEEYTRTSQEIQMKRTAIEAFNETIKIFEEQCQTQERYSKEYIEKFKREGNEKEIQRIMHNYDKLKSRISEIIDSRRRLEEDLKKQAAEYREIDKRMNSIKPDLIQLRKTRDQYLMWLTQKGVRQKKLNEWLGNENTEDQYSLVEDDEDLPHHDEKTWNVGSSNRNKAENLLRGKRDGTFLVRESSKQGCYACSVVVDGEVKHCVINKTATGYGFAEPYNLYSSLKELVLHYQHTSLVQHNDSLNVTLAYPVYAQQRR

pIC50 [1, 3]	pIC50 [1, 4]	pIC50 [2, 5]	pIC50 [2, 6]	pIC50 [1, 7]	pIC50 [2, 8]	SMILES
< 5.00	< 5.00	< 5.00	< 5.00	–	–	C[C@H]1COCCN1c1nc(-c2ccc(NC(=O)NC3CC3)cc2)nc2c1CCN(CC1CC1)C2 [Example 40, (S)-1-cyclopropyl-3-(4-(7-(cyclopropylmethyl)-4-(3-methylmorpholino)-5,6,7,8-tetrahydropyrido[3,4-d]pyrimidin-2-yl)phenyl)urea]
5.00 to 6.00	5.00 to 6.00	< 5.00	< 5.00	–	–	CNC(=O)Nc1ccc(-c2nc3c(c(N4CCOC[C@@H]4C)n2)CN(CC2CC2)C3)cc1 [Example 47, (S)-1-(4-(6-(cyclopropylmethyl)-4-(3-methylmorpholino)-6,7-dihydro-5H-pyrrolo[3,4-d]pyrimidin-2-yl)phenyl)-3-methylurea]
–	–	–	–	< 5.00	< 5.00	CCNC(=O)Nc1ccc(-c2nc3c(c(N4CCOC[C@@H]4C)n2)CN(C(=O)OC(C)(C)C)C3)c(F)c1 [Example 153, (S)-tert-butyl 2-(4-(3-ethylureido)-2-fluorophenyl)-4-(3-methylmorpholino)-5H-pyrrolo[3,4-d]pyrimidine-6-(7H)-carboxylate]
< 5.00	< 5.00	< 5.00	< 5.00	–	–	CCCNC(=O)Nc1ccc(-c2nc3c(c(N4CCOC[C@@H]4C)n2)CN(CC2CC2)C3)cc1 [Example 49, (S)-1-(4-(6-(cyclopropylmethyl)-4-(3-methylmorpholino)-6,7-dihydro-5H-pyrrolo[3,4-d]pyrimidin-2-yl)phenyl)-3-propylurea]
–	–	–	–	< 5.00	< 5.00	CCOC(=O)N1Cc2nc(-c3ccc(NC(=O)NC4CC4)cc3F)nc(N3CCOC[C@H]3C)c2C1 [Example 179, (R)-ethyl 2-(4-(3-cyclopropylureido)-2-fluorophenyl)-4-(3-methylmorpholino)-5H-pyrrolo[3,4-d]pyrimidine-6(7H)-carboxylate]
< 5.00	< 5.00	< 5.00	< 5.00	–	–	CCNC(=O)Nc1ccc(-c2nc3c(c(N4CCOC[C@@H]4C)n2)CN(C=O)C3)cc1 [Example 8, (S)-1-ethyl-3-(4-(6-formyl-4-(3-methylmorpholino)-6,7-dihydro-5H-pyrrolo[3,4-d]pyrimidin-2-yl)phenyl)urea]
–	–	–	–	< 5.00	< 5.00	CCOC(=O)N1Cc2nc(-c3ccc(NC(=O)NC4CC4)cc3F)nc(N3CCOCC3)c2C1 [Example 156, Ethyl 2-(4-(3-cyclopropylureido)-2-fluorophenyl)-4-morpholino-5H-pyrrolo[3,4-d]pyrimidine-6(7H)-carboxylate]
–	–	–	–	5.00 to 6.00	5.00 to 6.00	CCNC(=O)Nc1ccc(-c2nc3c(c(N4CCOC[C@@H]4C)n2)CCN(C(=O)N(C)C)C3)c(F)c1 [Example 176, (S)-2-(4-(3-ethylureido)-2-fluorophenyl)-N,N-dimethyl-4-(3-methylmorpholino)-5,6-dihydropyrido[3,4-d]pyrimidine-7(8H)-carboxamide]
< 5.00	< 5.00	< 5.00	< 5.00	–	–	CCNC(=O)Nc1ccc(-c2nc3c(c(N4CCOC[C@@H]4C)n2)CN(C(=O)C(C)(C)C)C3)cc1 [Example 22, (S)-1-ethyl-3-(4-(4-(3-methylmorpholino)-6-pivaloyl-6,7-dihydro-5H-pyrrolo[3,4-d]pyrimidin-2-yl)phenyl)urea]
–	–	–	–	< 5.00	< 5.00	C[C@H]1COCCN1c1nc(-c2ccc(NC(=O)NC3CC3)cc2F)nc2c1CCNC2 [Example 163, (S)-1-cyclopropyl-3-(3-fluoro-4-(4-(3-methylmorpholino)-5,6,7,8-tetrahydropyrido[3,4-d]pyrimidin-2-yl)phenyl)urea]
5.00 to 6.00	5.00 to 6.00	< 5.00	< 5.00	–	–	C[C@H]1COCCN1c1nc(-c2ccc(NC(N)=O)cc2)nc2c1CN(CC1CC1)C2 [Example 48, (S)-1-(4-(6-(cyclopropylmethyl)-4-(3-methylmorpholino)-6,7-dihydro-5H-pyrrolo[3,4-d]pyrimidin-2-yl)phenyl)urea]
< 5.00	< 5.00	< 5.00	< 5.00	–	–	C[C@H]1COCCN1c1nc(-c2ccc(NC(=O)NC3CC3)cc2)nc2c1CN(C(=O)C1CC1)C2 [Example 17, (S)-1-(4-(6-(cyclopropanecarbonyl)-4-(3-methylmorpholino)-6,7-dihydro-5H-pyrrolo[3,4-d]pyrimidin-2-yl)phenyl)-3-cyclopropylurea]
–	–	–	–	5.00 to 6.00	< 5.00	CCNC(=O)Nc1ccc(-c2nc3c(c(N4CCOC[C@@H]4C)n2)CN(C(=O)OC)C3)c(F)c1 [Example 152, (S)-methyl 2-(4-(3-ethylureido)-2-fluorophenyl)-4-(3-methylmorpholino)-5H-pyrrolo[3,4-d]pyrimidine-6-(7H)-carboxylate]
–	–	–	–	5.00 to 6.00	< 5.00	CC(C)N1Cc2nc(-c3ccc(NC(=O)NCCF)cc3F)nc(N3CCOC[C@@H]3C)c2C1 [Example 186, (S)-1-(3-fluoro-4-(6-isopropyl-4-(3-methylmorpholino)-6,7-dihydro-5H-pyrrolo[3,4-d]pyrimidin-2-yl)phenyl)-3-(2-fluoroethyl)urea]
–	–	< 5.00	< 5.00	–	–	C[C@H]1COCCN1c1nc(-c2ccc(NC(=O)NC3CCC3)cc2)nc2c1CN(C)C2 [Example 55, (S)-1-cyclobutyl-3-(4-(6-methyl-4-(3-methylmorpholino)-6,7-dihydro-5H-pyrrolo[3,4-d]pyrimidin-2-yl)phenyl)urea]

The remaining lines, values behind:

SMILES	pIC50 [1, 3]	pIC50 [1, 4]	pIC50 [2, 5]	pIC50 [2, 6]	pIC50 [1, 7]	pIC50 [2, 8]
CCNC(=O)Nc1ccc(-c2nc3c(c(N4CCOC[C@@H]4C)n2)CN(CC2CC2)C3)cc1 [Example 28, (S)-1-(4-(6-(cyclopropylmethyl)-4-(3-methylmorpholino)-6,7-dihydro-5H-pyrrolo[3,4-d]pyrimidin-2-yl)phenyl)-3-ethylurea]	< 5.00	< 5.00	< 5.00	< 5.00	–	–
COC(=O)N1Cc2nc(-c3ccc(NC(=O)NCCO)cc3F)nc(N3CCOC[C@@H]3C)c2C1 [Example 181, (S)-methyl 2-(2-fluoro-4-(3-(2-hydroxyethyl)ureido)phenyl)-4-(3-methylmorpholino)-5H-pyrrolo[3,4-d]pyrimidine-6(7H)-carboxylate]	–	–	–	–	< 5.00	5.00 to 6.00
CC(C)N1CCc2c(nc(-c3ccc(NC(=O)NC4CC4)cc3)nc2N2CCOC[C@@H]2C)C1 [Example 43, (S)-1-cyclopropyl-3-(4-(7-isopropyl-4-(3-methylmorpholino)-5,6,7,8-tetrahydropyrido[3,4-d]pyrimidin-2-yl)phenyl)urea]	< 5.00	< 5.00	< 5.00	< 5.00	–	–
CC(C)NC(=O)Nc1ccc(-c2nc3c(c(N4CCOC[C@@H]4C)n2)CN(CC2CC2)C3)cc1 [Example 50, (S)-1-(4-(6-(cyclopropylmethyl)-4-(3-methylmorpholino)-6,7-dihydro-5H-pyrrolo[3,4-d]pyrimidin-2-yl)phenyl)-3-isopropylurea]	< 5.00	< 5.00	< 5.00	< 5.00	–	–
C[C@H]1COCCN1c1nc(-c2ccc(NC(=O)Nc3ccc(F)cc3)cc2)nc2c1CN(C)C2 [Example 52, (S)-1-(4-fluorophenyl)-3-(4-(6-methyl-4-(3-methylmorpholino)-6,7-dihydro-5H-pyrrolo[3,4-d]pyrimidin-2-yl)phenyl)urea]	< 5.00	< 5.00	< 5.00	< 5.00	–	–
C[C@H]1COCCN1c1nc(-c2ccc(NC(=O)NC3CC3)cc2)nc2c1CN(C(=O)C(C)(C)C)C2 [Example 45, (S)-1-cyclopropyl-3-(4-(4-(3-methylmorpholino)-6-pivaloyl-6,7-dihydro-5H-pyrrolo[3,4-d]pyrimidin-2-yl)phenyl)urea]	< 5.00	< 5.00	< 5.00	< 5.00	–	–
CCNC(=O)Nc1ccc(-c2nc3c(c(N4CCOC[C@@H]4C)n2)CN(C(C)=O)C3)cc1 [Example 18, (S)-1-(4-(6-acetyl-4-(3-methylmorpholino)-6,7-dihydro-5H-pyrrolo[3,4-d]pyrimidin-2-yl)phenyl)-3-ethylurea]	5.00 to 6.00	5.00 to 6.00	< 5.00	< 5.00	–	–
C[C@H]1COCCN1c1nc(-c2ccc(NC(=O)NC3CC3)cc2F)nc2c1CCN(C(=O)N(C)C)C2 [Example 165, (S)-2-(4-(3-cyclopropylureido)-2-fluorophenyl)-N,N-dimethyl-4-(3-methylmorpholino)-5,6-dihydropyrido[3,4-d]pyrimidine-7(8H)-carboxamide]	–	–	–	–	< 5.00	< 5.00
CC(C)N1Cc2nc(-c3ccc(NC(=O)NC4CC4)cc3F)nc(N3CCOC[C@@H]3C)c2C1 [Example 172, (S)-1-cyclopropyl-3-(3-fluoro-4-(6-isopropyl-4-(3-methylmorpholino)-6,7-dihydro-5H-pyrrolo[3,4-d]pyrimidin-2-yl)phenyl)urea]	–	–	–	–	5.00 to 6.00	5.00 to 6.00
CCOC(=O)N1Cc2nc(-c3ccc(NC(=O)NC4CC4)cc3)nc(N3CCOC[C@@H]3C)c2C1 [Example 34, (S)-ethyl 2-(4-(3-cyclopropylureido)phenyl)-4-(3-methylmorpholino)-5H-pyrrolo[3,4-d]pyrimidine-6(7H)-carboxylate]	< 5.00	< 5.00	< 5.00	< 5.00	–	–
COC(=O)N1Cc2nc(-c3ccc(NC(=O)NCCF)cc3F)nc(N3CCOCC3)c2C1 [Example 169, Methyl 2-(2-fluoro-4-(3-(2-fluoroethyl)ureido)phenyl)-4-morpholino-5H-pyrrolo[3,4-d]pyrimidine-6(7H)-carboxylate]	–	–	–	–	–	< 5.00

— US8785457B2 (Cellzome Limited, priority 2009, dated 2014)
